# Data as given in patent US20090137527A1, “Compositions and methods for modulating immune function” (Resolvyx Pharmaceuticals, Inc., priority 2007, published 2009).
# Experiments:
# [1] = test system: mice with established Type II collagen arthritis; test: Male DBA/1J mouse established Type II collagen arthritis; assay type: in vivo
# Protocol: Male DBA/1J mice (7-9 weeks old on arrival; at least 7 weeks old at time of first immunization) were housed 5 per cage and were acclimated for enough days after arrival such that all animals were at least 7 weeks old at start of study.
# Mice were anesthetized with Isoflurane and given intradermal collagen (2 mg/ml) injections at the base of the tail in a volume of 150 μl (D0 and D21). On days 21-35, onset of arthritis occurred and mice were randomized into treatment groups. Randomization into each group was done after swelling was obviously established in at least one paw, and attempts were made to assure approximately equal mean scores across the groups at time of enrollment. Treatment was initiated after enrollment and continued every day for a total of 10 days as outlined in Table 3. During the ten days of treatment, clinical scores were given for each of the paws (right front, left front, right rear, and left rear) according to the scoring methods provided below. […]
# • 0 Normal • 1 Minimal—small areas of resorption, not readily apparent on low magnification, rare osteoclasts in affected joints • 2 Mild—more numerous areas of resorption, not readily apparent on low magnification, osteoclasts more numerous in affected joints • 3 Moderate—obvious resorption of medullary trabecular and cortical bone without full thickness defects in cortex, loss of some medullary trabeculae, lesion apparent on low magnification, osteoclasts more numerous in affected joints • 4 Marked—Full thickness defects in cortical bone, often with distortion of profile of remaining cortical surface, marked loss of medullary bone, numerous osteoclasts, affects most joints • Severe—Full thickness defects in cortical bone and destruction of joint architecture of all joints
# Histologic parameters (mean±SE) for each group were analyzed for differences using the Chi Square Test and one way ANOVA. […]
# spleen cells = test: In vitro treatment of mouse spleen cells, CD3-induced cytokine production; assay type: cell-based; conditions: 10 nM or 1000 nM, 5 days culture, then anti-CD3 overnight
# Protocol: BALB/c female mice, 6-8 weeks old, were euthanized and spleens were removed under sterile conditions. Spleens were gently pressed through a nylon strainer. Spleen cells and remaining connective tissue mass were incubated in a 6-well plate with 4 mL of Growth Media (RPMI 1640 supplemented with 10% FCS). Compound X was added to give a final concentration of 10 nM or 1000 nM. Control groups were spleen cells without addition of Compound X. All groups were in triplicates (3 animals per group). Plates were cultured in a 37° C., 5% CO2 incubator. Once a day, 1 mL of culture media was removed from each well and replaced with 1 mL fresh growth media containing the same concentration of Compound X or fresh media only. Culture was continued for 5 days. All cells were then removed from the plates. Cells were passed through a nylon strainer to remove any aggregates, washed, counted and adjusted to 2.5×10^6/mL in growth media. To anti-CD3 coated plates (coated per the procedure described below) were added 200 μL, or 5×10^5 cells per well. Cells were cultured in a 37° C., 5% CO2 incubator overnight. Supernatants were harvested, and cytokine levels were measured by Bioplex.
# For CD3 stimulation, anti-mouse CD3 mAb (BD Pharmingen clone 145-2C11) was used at 0.2 μg/mL in PBS to coat flat bottom 96-well plate at 4° C. overnight. Plates were rinsed twice with PBS before use.
# [2] = test system: murine DNFB-induced DTH model; test: DNFB-induced delayed-type-hypersensitivity (DTH) model, ear swelling; assay type: in vivo, mouse
# Protocol: Ear-swelling (swelling of the skin on the pinnae) was the endpoint of this model. This study was carried out over 6 to 7 days, with events occurring as described below.
# Mice (female BALB/c; n=10/group) were immunized with 0.5% of DNFB dissolved in acetone/olive oil. Sensitization was done with the contact allergen, wherein 20 μL of the solution was placed on the footpads of the animals.
# […] The mice were challenged at day 5. 10 μL of a 0.8% DNFB solution was topically applied externally on the right ear of the animal. As control, the left ear was treated the same way with vehicle alone (acetone/olive oil).
# Animals were anesthetized with isoflurane and the ear swelling was measured within 24 to 48 hours after challenge using a micrometer. The micrometer calipers were closed around the top portion of the each external ear until resistance from the ear was felt. […]
compound,measurement,setting,value
CC[C@@H](O)/C=C/C=C\C[C@@H](O)/C=C/C=C/C=C\[C@@H](O)CCCC(=O)O [Compound X],clinical symptoms of arthritis (clinical scoring in the paws),"[1]; once daily i.v. at both 0.5 and 5.0 μg/kg, vs arthritic control",inhibited
same,pannus formation and bone loss (histologic scoring),"[1]; once daily i.v. at both 0.5 and 5.0 μg/kg, vs vehicle control",reduced
same,score of bone damage (histologic scoring in joints),"[1]; twice daily 5 μg/kg i.v., vs vehicle control",significant decrease
same,CD3-induced cytokine production of spleen cells after in vitro treatment,spleen cells,inhibited
same,"maximal efficacy, inhibition of tissue (ear) swelling","[2]; 30 μg/kg i.v., 15 minutes before challenge, ear thickness 24 hours after challenge",38%
same,"inhibition of the DTH response, Compound X versus dexamethasone",[2]; dexamethasone 60 minutes prior to DNFB challenge,comparable levels of inhibition
same,"DNFB-DTH response, two regimens","[2]; i.p. 0.03 mg/kg once daily day 0 to day 5, or single injection on day 5",comparable and significant reduction
same,"tissue swelling, dose dependence","[2]; i.v., 15 minutes before challenge",dose-dependently reduced
